Measured values published in PubChem BioAssay AID1963826 (Molecular Pharmacology Branch, DTP, NCI, 2024).

Tested on: 926638-142-R-J1-PDC complex spheroid viability
Assay: Anticancer human tumor 926638-142-R-J1-PDC patient-derived endometrial carcinoma cell line growth inhibition [POLQ]
Settings: for IC50: curve of first compound; for viability, T/C: stronger effect = lower value
Procedure, shortened: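 PDC + HUVEC + MSC complex spheroids; POLQ inhibitors ± partner drugs; top conc. at/near clinical Cmax, else 10 microM (SN-38 1 microM), half-log dilutions; 37 degrees C, 5% CO2.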

[1] = second compound 0.0316 µM, first compound 0.0316 µM
[2] = second compound 0.0316 µM, first compound 0.1 µM
[3] = second compound 0.0316 µM, first compound 0.316 µM
[4] = second compound 0.0316 µM, first compound 1 µM
[5] = second compound 0.0316 µM, first compound 3.16 µM
[6] = second compound 0.0316 µM, first compound 10 µM
[7] = second compound 0.1 µM, first compound 0.0316 µM
[8] = second compound 0.1 µM, first compound 0.1 µM
[9] = second compound 0.1 µM, first compound 0.316 µM
[10] = second compound 0.1 µM, first compound 1 µM
[11] = second compound 0.1 µM, first compound 3.16 µM
[12] = second compound 0.1 µM, first compound 10 µM
[13] = second compound 0.316 µM, first compound 0.0316 µM
[14] = second compound 0.316 µM, first compound 0.1 µM
[15] = second compound 0.316 µM, first compound 0.316 µM
[16] = second compound 0.316 µM, first compound 1 µM
[17] = second compound 0.316 µM, first compound 3.16 µM
[18] = second compound 0.316 µM, first compound 10 µM
[19] = second compound 1 µM, first compound 0.0316 µM
[20] = second compound 1 µM, first compound 0.1 µM
[21] = second compound 1 µM, first compound 0.316 µM
[22] = second compound 1 µM, first compound 1 µM
[23] = second compound 1 µM, first compound 3.16 µM
[24] = second compound 1 µM, first compound 10 µM
[25] = second compound 3.16 µM, first compound 0.0316 µM
[26] = second compound 3.16 µM, first compound 0.1 µM
[27] = second compound 3.16 µM, first compound 0.316 µM
[28] = second compound 3.16 µM, first compound 1 µM
[29] = second compound 3.16 µM, first compound 3.16 µM
[30] = second compound 3.16 µM, first compound 10 µM
[31] = second compound 10 µM, first compound 0.0316 µM
[32] = second compound 10 µM, first compound 0.1 µM
[33] = second compound 10 µM, first compound 0.316 µM
[34] = second compound 10 µM, first compound 1 µM
[35] = second compound 10 µM, first compound 3.16 µM
[36] = second compound 10 µM, first compound 10 µM
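Note: spheroids exposed to drugs for one week before readout.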
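Throughout, for viability, T/C: percent viability relative to DMSO vehicle control wells set as 100%.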

`O=C(Nc1ccc(O)c(NS(=O)(=O)c2ccc(F)cc2)c1)c1ccc(-c2ccccc2)cc1` + COC1C(OC(N)=O)C(O)C(Oc2ccc3c(O)c(NC(=O)c4ccc(O)c(CC=C(C)C)c4)c(=O)oc3c2C)OC1(C)C showed an IC50 (second compound 0.0316 µM) of over 10 µM, an IC50 (second compound 0.1 µM) of over 10 µM and an IC50 (second compound 0.316 µM) of over 10 µM. It also gave an IC50 (second compound 1 µM) of over 10 µM, an IC50 (second compound 3.16 µM) of over 10 µM and an IC50 (second compound 10 µM) of over 10 µM. The viability, T/C [1] was 89.2%, the viability, T/C [2] was 87.5% and the viability, T/C [3] was 109%. It also gave a viability, T/C [4] of 99.4%, a viability, T/C [5] of 103% and a viability, T/C [6] of 69.1%. It also gave a viability, T/C [7] of 91%, a viability, T/C [8] of 96.8% and a viability, T/C [9] of 98.6%. The viability, T/C [10] was 101%, the viability, T/C [11] was 94.8% and the viability, T/C [12] was 87.3%. The viability, T/C [13] was 108%, the viability, T/C [14] was 101% and the viability, T/C [15] was 82.2%. It also gave a viability, T/C [16] of 101%, a viability, T/C [17] of 94.8% and a viability, T/C [18] of 66%. It also gave a viability, T/C [19] of 90.6%, a viability, T/C [20] of 88.4% and a viability, T/C [21] of 89.6%. It also gave a viability, T/C [22] of 98.3%, a viability, T/C [23] of 99.9% and a viability, T/C [24] of 80.9%. It also gave a viability, T/C [25] of 108%, a viability, T/C [26] of 88.3% and a viability, T/C [27] of 94.5%. It also gave a viability, T/C [28] of 118%, a viability, T/C [29] of 94.6% and a viability, T/C [30] of 85.7%. For the same molecule, the viability, T/C [31] was 97.7%, the viability, T/C [32] was 103% and the viability, T/C [33] was 93.8%. For the same molecule, the viability, T/C [34] was 94.7%, the viability, T/C [35] was 104% and the viability, T/C [36] was 69.4%.

`CCc1c2c(nc3ccc(O)cc13)-c1cc3c(c(=O)n1C2)COC(=O)[C@]3(O)CC` + COC1C(OC(N)=O)C(O)C(Oc2ccc3c(O)c(NC(=O)c4ccc(O)c(CC=C(C)C)c4)c(=O)oc3c2C)OC1(C)C showed an IC50 (second compound 0.0316 µM) of 0.00881 µM, an IC50 (second compound 0.1 µM) of 0.0126 µM and an IC50 (second compound 0.316 µM) of 0.0119 µM. The IC50 (second compound 1 µM) was 0.0107 µM, the IC50 (second compound 3.16 µM) was 0.0121 µM and the IC50 (second compound 10 µM) was 0.0136 µM. It also gave a viability, T/C (second compound 0.0316 µM, first compound 0.00316 µM) of 79.4%, a viability, T/C (second compound 0.0316 µM, first compound 0.01 µM) of 42% and a viability, T/C [1] of 30.3%. It also gave a viability, T/C [2] of 19.2%, a viability, T/C [3] of 7.89% and a viability, T/C [4] of 4.74%. The viability, T/C (second compound 0.1 µM, first compound 0.00316 µM) was 65.7%, the viability, T/C (second compound 0.1 µM, first compound 0.01 µM) was 54.1% and the viability, T/C [7] was 35.9%. The viability, T/C [8] was 17.1%, the viability, T/C [9] was 14.9% and the viability, T/C [10] was 4.58%. The viability, T/C (second compound 0.316 µM, first compound 0.00316 µM) was 68.6%, the viability, T/C (second compound 0.316 µM, first compound 0.01 µM) was 54% and the viability, T/C [13] was 32%. For the same molecule, the viability, T/C [14] was 19.1%, the viability, T/C [15] was 9.36% and the viability, T/C [16] was 4.49%. For the same molecule, the viability, T/C (second compound 1 µM, first compound 0.00316 µM) was 61.8%, the viability, T/C (second compound 1 µM, first compound 0.01 µM) was 53.5% and the viability, T/C [19] was 30.4%. It also gave a viability, T/C [20] of 20.2%, a viability, T/C [21] of 8.68% and a viability, T/C [22] of 5.03%. For the same molecule, the viability, T/C (second compound 3.16 µM, first compound 0.00316 µM) was 57.8%, the viability, T/C (second compound 3.16 µM, first compound 0.01 µM) was 49.7% and the viability, T/C [25] was 40.5%. For the same molecule, the viability, T/C [26] was 17.7%, the viability, T/C [27] was 8.91% and the viability, T/C [28] was 5.57%. It also gave a viability, T/C (second compound 10 µM, first compound 0.00316 µM) of 59.1%, a viability, T/C (second compound 10 µM, first compound 0.01 µM) of 57.4% and a viability, T/C [31] of 35.7%. For the same molecule, the viability, T/C [32] was 21.5%, the viability, T/C [33] was 9.84% and the viability, T/C [34] was 6.1%.

Molecule `COc1cc(C2c3cc4c(cc3C(OC3OC5COC(C)OC5C(O)C3O)C3COC(=O)C23)OCO4)cc(OC)c1O` (stereo not drawn) + Nc1ccc(C#CCN(C(=O)Cc2ncc(C(F)(F)F)cc2C(F)(F)F)c2ccc(F)cc2)nn1 has an IC50 (second compound 0.0316 µM) of over 10 µM, an IC50 (second compound 0.1 µM) of over 10 µM and an IC50 (second compound 0.316 µM) of over 10 µM. It also gave an IC50 (second compound 1 µM) of over 10 µM, an IC50 (second compound 3.16 µM) of over 10 µM and an IC50 (second compound 10 µM) of over 10 µM. The viability, T/C [1] was 99.2%, the viability, T/C [2] was 81.6% and the viability, T/C [3] was 80.3%. It also gave a viability, T/C [4] of 73.1%, a viability, T/C [5] of 77.8% and a viability, T/C [6] of 58.1%. It also gave a viability, T/C [7] of 96.6%, a viability, T/C [8] of 101% and a viability, T/C [9] of 70.3%. For the same molecule, the viability, T/C [10] was 67.4%, the viability, T/C [11] was 80% and the viability, T/C [12] was 53.5%. The viability, T/C [13] was 106%, the viability, T/C [14] was 77.7% and the viability, T/C [15] was 71.7%. For the same molecule, the viability, T/C [16] was 69.4%, the viability, T/C [17] was 69.7% and the viability, T/C [18] was 54%. For the same molecule, the viability, T/C [19] was 102%, the viability, T/C [20] was 83.1% and the viability, T/C [21] was 80.4%. The viability, T/C [22] was 74.4%, the viability, T/C [23] was 69.3% and the viability, T/C [24] was 57%. The viability, T/C [25] was 83.3%, the viability, T/C [26] was 87.2% and the viability, T/C [27] was 71.2%. The viability, T/C [28] was 63.3%, the viability, T/C [29] was 76.1% and the viability, T/C [30] was 51%. The viability, T/C [31] was 94.9%, the viability, T/C [32] was 82.6% and the viability, T/C [33] was 73.3%. It also gave a viability, T/C [34] of 63%, a viability, T/C [35] of 69% and a viability, T/C [36] of 53.4%.

`C=CC(=O)N1CCN(c2nc(=O)n(-c3c(C)ccnc3C(C)C)c3nc(-c4c(O)cccc4F)c(F)cc23)C(C)C1` (stereo not drawn) + Nc1ccc(C#CCN(C(=O)Cc2ncc(C(F)(F)F)cc2C(F)(F)F)c2ccc(F)cc2)nn1 was tested, and the IC50 (second compound 0.0316 µM) was over 10 µM, the IC50 (second compound 0.1 µM) was over 10 µM and the IC50 (second compound 0.316 µM) was over 10 µM. The IC50 (second compound 1 µM) was over 10 µM, the IC50 (second compound 3.16 µM) was over 10 µM and the IC50 (second compound 10 µM) was over 10 µM. It also gave a viability, T/C [1] of 93.4%, a viability, T/C [2] of 106% and a viability, T/C [3] of 98.1%. It also gave a viability, T/C [4] of 92.5%, a viability, T/C [5] of 88.4% and a viability, T/C [6] of 52.5%. It also gave a viability, T/C [7] of 107%, a viability, T/C [8] of 103% and a viability, T/C [9] of 93.2%. The viability, T/C [10] was 86.6%, the viability, T/C [11] was 87.8% and the viability, T/C [12] was 55.8%. For the same molecule, the viability, T/C [13] was 108%, the viability, T/C [14] was 91% and the viability, T/C [15] was 79.8%. For the same molecule, the viability, T/C [16] was 90.1%, the viability, T/C [17] was 86.4% and the viability, T/C [18] was 53%. It also gave a viability, T/C [19] of 106%, a viability, T/C [20] of 86.8% and a viability, T/C [21] of 94.6%. For the same molecule, the viability, T/C [22] was 82.3%, the viability, T/C [23] was 85.1% and the viability, T/C [24] was 53.5%. It also gave a viability, T/C [25] of 93%, a viability, T/C [26] of 99.7% and a viability, T/C [27] of 89.5%. It also gave a viability, T/C [28] of 93.6%, a viability, T/C [29] of 73.8% and a viability, T/C [30] of 53.8%. The viability, T/C [31] was 94.4%, the viability, T/C [32] was 98.5% and the viability, T/C [33] was 78.2%. The viability, T/C [34] was 78.7%, the viability, T/C [35] was 87% and the viability, T/C [36] was 60.4%.
